Test results published in patent US6150363A, “Dihydrophenazinecarboxylic acid derivatives” (priority 1996, dated 2000).
pEC50: −log10 of the molar value. Counter-ions that a name gives are not always drawn.

Key:
N18-RE-105 cell [1] = test: Test for inhibition of glutamic acid toxicity to neurocyte (LDH release); assay type: cell-based, hybridoma of mouse neuroblastoma and rat retinal neurocyte; details: for pEC50: 10 mM glutamic acid, 24 hours; for cytoprotective action to glutamic acid toxicity in neurocyte: result in words
Description: Neuron 2, 1547 (1989) and J. Pharmacol. Exp. […] The dihydrophenazinecarboxylic acid derivatives of the invention were examined in the action to the glutamic acid-induced cell death. […] Hybridoma cells were plated at 6.25×10^3 cells/cm^2. on 96 well microplate in Dalbecco's modified MEM containing 10% FBS (fetal bovine serum) and HAT (hypoxanthine 0.1 mM, aminopterin 40 nM, thymidine 0.14 mM, Sigma Chem., Co.). […] After the addition of glutamic acid, the culture was maintained for further 24 hours. Then, the activity of lactate dehydrogenase (LDH) contained in the cells and the medium was determined. The LDH releasing ratio was calculated using the below-mentioned equation to examine the glutamic acid toxicity. LDH releasing ratio=[LDH activity in medium/(LDH activity in cells and LDH activity in medium)]×100

N18-RE-105 cell [2] = test: Test for inhibition of BSO toxicity to neurocyte (LDH release); assay type: cell-based, hybridoma of mouse neuroblastoma and rat retinal neurocyte; details: for pEC50: BSO 500 μM, 24 hours; for cytoprotective action to BSO toxicity in neurocyte: result in words
Description: (2) Test for inhibition of BSO toxicity to neurocyte (neurocyte protective action against cytotoxicity accompanied by decrease of amount of intracellular glutathione)
The culture of neurocyte N18-RE-105, addition of the test compound, and determination of lactate dehydrogenase (LDH) were carried out in the manner as described in (1) above. BSO was added at the concentration of 500 μM.

ddY strain male mice = test: Acute toxicity, intravenous, mice; assay type: in vivo; details: 5 mg, intravenous injection
Description: The compound of the invention (ethyl 7-benzoyl-5,10-dihydro-1-phenazinecarboxylate obtained in Example 1) was administered to ddY strain male mice (weight: 23 to 27 g) in a dose of 5 mg by intravenous injection.

hippocampal cells = test: Test for inhibition of glutamic acid toxicity to hippocampal cells in primary culture (LDH); assay type: cell-based; details: hippocampal cell, rat fetus, 1 mM glutamic acid, 48 hours
Description: 1) Preparation of hippocampal cells (from rat fetus in primary culture) A pregnant rat (18 days pregnancy) was anesthetized by Pentobarbital sodium. Its abdomen was sterilized using 83% ethanol and treated to take its fetus out. The whole brain was taken out from the fetus under stereomicroscopical observation. From the brain, its hippocampal portion was taken out. The hippocampal portion was cut into small pieces using a knife. The procedures for taking the hippocampal portion out and cutting the portion into small pieces were performed in a Hanks buffer solution (4° C.) without Ca^2+ and Mg^2+. The pieces of hippocampus were treated with 0.25% trypsin/0.01% DNase I solution at 37° C. for 30 minutes. After the addition of dialyzed FBS at the concentration of 20%, the treated specimen was recovered by centrifugal separation and suspended in DMEM containing GMS-A obtained from GIBCO (S1 culture medium). The specimen was gently treated by a pipet to give a cell suspension. […] 2) Determination of activity (Lactate dehydrogenase (LDH) method) The cytoprotective action of the test compound was determined by measuring activity of LDH released from the dead cells and activity of LDH in the living cells. […] After the culturing procedure was complete, the activity of lactate dehydrogenase was determined in the manner described in 1) above.

[3] = tested on: rat whole brain homogenate; test: Test for inhibition of production of peroxidized lipid in rat whole brain homogenate (TBA method); assay type: biochemical; details: 10^-4 M, iron-ascorbic acid, 37° C., one hour
Description: (4) Test for inhibition of production of peroxidized lipid in rat whole brain homogenate
From the rat which had been fed with vitamin E deficient food for 11 weeks, a whole brain was taken out and frozen in liquid nitrogen. After the frozen whole brain was pulverized to give a powder, it was homogenized by Dounce type homogenizer. The homogenate was subjected to centrifugal separation at 180×g for 10 minuets, and the supernatant was recovered. The recovered supernatant was employed as the whole brain homogenate. The reaction of lipid peroxidation was initiated by stimulation using iron-ascorbic acid. The peroxidized lipid was quantitatively analyzed by the thiobarbituric acid (TBA) method. In more detail, 200 μL of the whole brain homogenate (protein content: 12.5 mg/mL), 50 μL of ADP (2 mg/mL), 50 μL of FeSO4 (0.5 mM), 50 μL of ascorbic acid (12 mM), and 50 μL of the test compound were added to 100 μL of 0.2M Tris-HCl buffer solution. The mixture was incubated at 37° C. for one hour. After the incubation was complete, 50 μL of 0.5% butylhydroxytoluene/ethanol solution, 250 μL of 8.1% SDS (sodium dodecylsulfate) solution, 1,750 μL of 20% acetic acid, and 1,500 μL of 0.8% TBA solution were added to the incubated mixture. The resulting mixture was boiled for one hour. […] The separated supernatant was subjected to measurement of absorbance at 535 nm.

glutamic acid toxicity = details: J. Antibiotics, 48, 1378 (1995) and PCT WO96/22996; cited from earlier work
free radical = details: cited from earlier work; for antioxidant property: J. Antibiotics, 48, 1378 (1995) and PCT WO96/22996; for free radical scavenger (anti-oxidant): J. Nat. Prod., 56, 1255(1993)
[4] = Stability at room temperature under atmospheric conditions; assay type: physicochemical

CCOC(=O)c1cccc2c1Nc1ccc(C(=O)c3ccccc3)cc1N2C(=O)OC [Comparative, Ethyl 7-benzoyl-5,10-dihydro-5-methoxycarbonyl-1-phenazinecarboxylate]
pEC50 (N18-RE-105 cell [1]): < 6.00
cytoprotective action to glutamic acid toxicity in neurocyte (N18-RE-105 cell [1]): no cytoprotective action
pEC50 (N18-RE-105 cell [2]): < 6.00
cytoprotective action to BSO toxicity in neurocyte (N18-RE-105 cell [2]): no cytoprotective action

CCOC(=O)c1cccc2c1Nc1ccc(C(=O)c3ccccc3)cc1N2 [Compound 1, Ethyl 7-benzoyl-5,10-dihydro-1-phenazinecarboxylate]
pEC50 (N18-RE-105 cell [1]): 8.48
death (acute toxicity) (ddY strain male mice): No death was observed
pEC50 (N18-RE-105 cell [2]): 8.22

CCOC(=O)c1cccc2c1Nc1ccc(C(=O)c3ccccc3)cc1N2CC=C(C)C [Compound 2, Ethyl 7-benzoyl-5,10-dihydro-5-(3-methyl-2-butenyl)-1-phenazinecarboxylate]
pEC50 (N18-RE-105 cell [1]): 7.84
EC25 (hippocampal cells): 12 nM
pEC50 (N18-RE-105 cell [2]): 7.02
Inhibition of lipid peroxidation (% per control value) [3]: 60.2%

CCOC(=O)c1cccc2c1Nc1ccc(C(=O)c3ccccc3)cc1N2Cc1ccccc1 [Compound 3, Ethyl 7-benzoyl-5-benzyl-5,10-dihydro-1-phenazinecarboxylate]
pEC50 (N18-RE-105 cell [1]): 7.39
pEC50 (N18-RE-105 cell [2]): 7.14

CCOC(=O)c1cccc2c1Nc1ccc(C(=O)c3ccccc3)cc1N2C [Compound 4, Ethyl 7-benzoyl-5,10-dihydro-5-methyl-1-phenazinecarboxylate]
pEC50 (N18-RE-105 cell [1]): 7.24
pEC50 (N18-RE-105 cell [2]): 7.05

CC(C)=CCN1c2cc(C(=O)c3ccccc3)ccc2Nc2c(C(=O)OCCCN(C)C)cccc21 [Compound 5, 3-(Dimethylamino)propyl 7-benzoyl-5,10-dihydro-5-(3-methyl-2-butenyl)-1-phenazinecarboxylate hydrochloride]
EC25 (hippocampal cells): 57.5 nM

O=c1c2ccccc2[se]n1-c1ccccc1 [Ebselen, ebselen]
pEC50 (N18-RE-105 cell [1]): 5.00
cytoprotective action to glutamic acid toxicity in neurocyte (N18-RE-105 cell [1]): no cytoprotective action
pEC50 (N18-RE-105 cell [2]): 5.12
cytoprotective action to BSO toxicity in neurocyte (N18-RE-105 cell [2]): no cytoprotective action

CC(CNC(=O)c1cccnc1)NC(=O)c1cccnc1 (stereo not shown) [Nicarven, nicaraven]
pEC50 (N18-RE-105 cell [1]): < 4.00
cytoprotective action to glutamic acid toxicity in neurocyte (N18-RE-105 cell [1]): no cytoprotective action
pEC50 (N18-RE-105 cell [2]): < 4.00
cytoprotective action to BSO toxicity in neurocyte (N18-RE-105 cell [2]): no cytoprotective action

CC(C)=CCN1c2cc(C(=O)c3ccccc3)ccc2Nc2c(C(=O)OC3O[C@@H](C)[C@H](O)[C@@H](O)[C@H]3O)cccc21 (stereo partly shown) [aestivophoenin A]
inhibition of glutamic acid toxicity (glutamic acid toxicity): inhibit glutamic acid toxicity
antioxidant property (free radical): shows antioxidant property

CC(C)=CCc1cc(C(=O)c2ccccc2)cc2c1Nc1c(C(=O)OC3O[C@@H](C)[C@H](O)[C@@H](O)[C@H]3O)cccc1N2CC=C(C)C (stereo partly shown) [aestivophoenin B]
inhibition of glutamic acid toxicity (glutamic acid toxicity): inhibit glutamic acid toxicity
antioxidant property (free radical): shows antioxidant property

CC(C)=CCC/C(C)=C/CN1c2cc(C(=O)c3ccccc3)ccc2Nc2c(C(=O)O)cc(C(=O)c3ccccc3)cc21 [benthophoenin]
free radical scavenger (anti-oxidant) (free radical): employable as a free radical scavenger (anti-oxidant)

CCOC(=O)c1cccc2c1Nc1ccccc1N2 [ethyl 5,10-dihydro-1-phenazinecarboxylate]
stability [4]: unstable at room temperature

COC(=O)c1cc(C(=O)c2ccccc2)cc2c1Nc1ccc(C(=O)c3ccccc3)cc1N2C/C=C(\C)CCC=C(C)C [its methyl ester]
free radical scavenger (anti-oxidant) (free radical): employable as a free radical scavenger (anti-oxidant)
